Results taken from PMC4695662 (BioMed Research International, 2015).

Key:
Oat1 and Oat3 [1] = test: PAH pharmacokinetic studies in mice sera after oral treatment with investigational samples; settings: in words, versus control
Experimental: All mice were given standard mice chows and pure water ad libitum and housed at 20~26°C.
On the experiment day, 60 min after the last administration of investigational samples, all mice were single i.v. PAH (30 mg/kg B.W., aqueous solution), respectively, according to the protocol of Bertani et al. [16] and blood samples were collected from 10 mice/group by euthanization in each time point at 1.0, 2.5, 5.0, 7.5, 10.0, 20.0, and 30.0 min after PAH injection. Blood samples were centrifuged at 2000 ×g for 5 min. The obtained sera were stored at −20°C until measurement.
The concentration of PAH in sera was determined according to Saikan and Kiguchi [19] method. The sera concentration versus time curve for PAH, for each individual animal, was fitted with PK software DAS 2.0. The data were fitted to a biexponential curve. The choice of the best fit was based on the determination of coefficient values (R ^2) and LSD test [20]. All fits should have R ^2 values > 0.98. […] Concentration of PAH in serum was measured using the method described by Di Giusto et al. [21].

Oat3 mRNA = Oat3 mRNA expression in kidney by real-time PCR; assay type: in vivo; settings: renal cortex of mice
Experimental: (§1) Total RNA was extracted using Trizol reagent from renal cortical tissues according to the manufacturer's instructions and RNA concentration and purity were evaluated by measuring the ratio of A260 nm/A280 nm. First-strand cDNA was generated by adding 1 μg total RNA; 2 μL 5x gDNA Eraser Buffer; 1 μL gDNA Eraser; 5 μL RNase Free dH2O (step 1: 42°C, 2 min for genomic DNA elimination reaction); […]; 1 μL Prime Script RT Enzyme Mix I; 1 μL RT Primer Mix; 4 μL RNase Free dH2O; and 10 μL reaction solution from step 1, which were used to reach a total reaction volume of 20 μL. The condition of reverse-transcription (RT) reaction was as follows, 15 min at 37°C and 85°C for 5 s, and stored at 4°C. […]
(§2) The real-time quantitative PCR was conducted in ABI 7500 (Applied Biosystems, USA) and the cycling program was set at 1 cycle of predenaturation at 95°C for 30 s and then 40 cycles at 95°C for 15 s, 56°C for 30 s, and 72°C for 31 s. […] Quantification of the target cDNAs in all samples was normalized to GAPDH […] (Cttarget − CtGAPDH = ΔCt) and the difference in expression for each target cDNA in the investigated groups was expressed to the amount in the water control group (ΔCttreated − ΔCtcontrol = ΔΔCt). Fold changes in target gene expression were determined by taking 2 to the power of this number (2^−ΔΔCt).

Oat1 mRNA = Oat1 mRNA expression in kidney by real-time PCR; assay type: in vivo; settings: renal cortex of mice
Experimental: as §1, §2

Oat1 and Oat3 [2] = test: PAH uptake by mice renal slices after treatment; assay type: in vivo; settings: 2 mM PAH, 20 min, 37°C, slices from mice treated twice a day for five days; in words
Experimental: The uptake of PAH by mice renal slices was investigated using the procedures described by Henderson and Lindup. Briefly, mice were executed, and the kidneys were immediately harvested, decapsulated, and placed in an ice-cold oxygenated rinse PBS (pH 7.4). Renal slices (weight 10–20 mg/slice) were cut freehand with Gillette valet strip blades to about 0.2 inches in length (Sabre International Products Ltd., Reading, UK). Slices of one kidney were preincubated for 5 min at 37°C and incubated in a 12-well plate with 1 mL of oxygenated PAH-buffer which consisted of 2 mM PAH, 97 mM NaCl, 40 mM KCl, 0.74 mM CaCl2, and 7.5 mM sodium phosphate-chloride buffer in each well. The uptake study was carried out at 37°C in the shaking bath. After incubating for 20 min, each slice was rapidly removed from the PAH-buffer, immediately inactivated the proteins with trichloroacetic acid, was washed in ice-cold saline, was blotted on filter paper, was weighed, and then was homogenized at a ratio of 3 mL/g wet weight. The following operations were the same as described in Section 2.6.

Oat1 and Oat3 [3] = test: Accumulation of PAH in kidney tissue; assay type: in vivo, mice; settings: all sampling times after i.v. PAH, compared with C-1 (p < 0.01); in words
Experimental: The mice renal homogenate was prepared by Shihana et al. protocol. Each right kidney was cut into small pieces, which were put into a glass homogenizing tube containing PBS (200 mM sucrose, 137 mM NaCl, 2.7 mM KCl, 10 mM Na2HPO4, and 2 mM NaH2PO4; pH 7.4) at a ratio of 8 mL/g wet weight and then were homogenized with a motor-driven Teflon pestle (1000 rpm/min) and spun down for 30 min at 20,000 ×g. The supernatant was isolated and then stored at −20°C until determination. The kidney homogenates were prepared from each group which was removed at 1, 5, 10, 20, and 30 min after i.v. PAH. Protein content of kidney homogenates was quantified using the Lowry Folin phenol reagent (Nanjing Jiancheng Bioengineering Institute, Ltd., China, Lot. 130918). The concentrations of PAH in kidney homogenate were determined the same as that in the sera.

[Cl][Hg][Cl] [HgCl2]
Change of area under the curve (AUC0–30 min) of serum PAH (Oat1 and Oat3 [1]): significant increase | Change of total volume of distribution (VdT) of serum PAH (Oat1 and Oat3 [1]): obvious decrease | Decrease in Oat3 mRNA level (Oat3 mRNA): 40% | Reduction of Oat1 mRNA expression (Oat1 mRNA): 40% | Active uptake of PAH by renal slices (Oat1 and Oat3 [2]): interfered with the PAH uptake | PAH accumulations in the kidneys (Oat1 and Oat3 [3]): observably increased
